# Assay results as given in patent US20080153818A1, “METHODS FOR PREVENTING INFLAMMATION DURING SURGERY” (priority 2006, published 2008).
# Key:
# [1] = test system: preretinal neovascularization (NV) in the rat model of oxygen-induced retinopathy (OIR); experiment: Rat oxygen-induced retinopathy (OIR) model, single intravitreal injection; type: in vivo, Sprague-Dawley rats
# Description: METHODS. Pregnant Sprague-Dawley rats were received at 14 days gestation and subsequently gave birth on Day 22±1 of gestation. Immediately following parturition, pups were pooled and randomized into separate litters (n=17 pups/litter), placed into separate shoebox cages inside oxygen delivery chamber, and subjected to an oxygen-exposure profile from Day 0-14 postpartum. Litters were then placed into room air from Day 14/0 through Day 14/6 (days 14-20 postpartum). Additionally on Day 14/0, each pup was randomly assigned as an oxygen-exposed control or into various treatment groups. For those randomized into an injection treatment group: one eye received a 5 μl intravitreal injection of 0.1%, 0.3%, 0.6%, or 1% RTKi and the contralateral eye received a 5 μl intravitreal injection of vehicle. At Day 14/6 (20 days postpartum), all animals in both studies were euthanized.
# Immediately following euthanasia, retinas from all rat pups were harvested, fixed in 10% neutral buffered formalin for 24 hours, subjected to ADPase staining, and fixed onto slides as whole mounts. Digital images were acquired from each retinal flat mount that was adequately prepared. Computerized image analysis was used to obtain a NV clockhour score from each readable sample. Each clockhour out of 12 total per retina was assessed for the presence or absence of preretinal NV. […]
# [2] = test system: preretinal neovascularization (NV) in the rat OIR model; experiment: Rat OIR model, oral gavage; type: in vivo, Sprague-Dawley rats
# Experimental: Immediately following euthanasia, retinas from all rat pups were harvested, fixed in 10% neutral buffered formalin for 24 hours, subjected to ADPase staining, and fixed onto slides as whole mounts. Digital images were acquired from each retinal flat mount that was adequately prepared. Computerized image analysis was used to obtain a NV clockhour score from each readable sample. Each clockhour out of 12 total per retina was assessed for the presence or absence of preretinal NV. Statistical comparisons using median scores for NV clockhours from each treatment group were utilized in nonparametric analyses. Each noninjected pup represented one NV score by taking the average value of both eyes and was used in comparisons against each dosage group. Because the pups were randomly assigned and no difference was observed between oxygen-exposed control pups from all litters, the NV scores were combined for all treatment groups. P≦0.05 was considered statistically significant.
# METHODS. Pregnant Sprague-Dawley rats were received at 14 days gestation and subsequently gave birth on Day 22±1 of gestation. Immediately following parturition, pups were pooled and randomized into separate litters (n=17 pups/litter), placed into separate shoebox cages inside oxygen delivery chamber, and subjected to an oxygen-exposure profile from Day 0 to Day 14 postpartum. Litters were then placed into room air from Day 14/0 through Day 14/6 (days 14-20 postpartum). Additionally on Day 14/0, each pup was randomly assigned as oxygen-exposed controls, vehicle treated, or drug-treated at 1.5, 5, 10 mg/kg, p.o., BID. At Day 14/6 (20 days postpartum), all animals in both studies were euthanized and retina whole mounts were prepared as described in Example 1 above.
# [3] = test system: existing laser-induced choroidal neovascularization (CNV); experiment: Mouse laser-induced CNV, regression paradigm, oral gavage from day 7; type: in vivo; conditions: 3 mg/kg/day oral from day 7
# [4] = test system: diabetes-induced retinal vascular permeability (STZ rat model); experiment: STZ diabetic rat retinal vascular permeability, oral gavage; type: in vivo
# Experimental: METHODS. Diabetes was induced in male Long-Evans rats with 65 mg/kg streptozotocin (STZ) after an overnight fast. Upon confirmation of diabetes (blood glucose >250 mg/dl), treatment was initiated by oral gavage. Non-diabetic (NDM) and diabetic (DM) rats received oral gavage of either vehicle or RTK inhibitor at 1.5 or 5 mg/kg/d BID. After 2 weeks, jugular vein catheters were implanted 1 day prior to experimentation for the infusion of indicator dye. Retinal vascular permeability, RVP, was measured using Evan's blue albumin permeation (45 mg/kg) after a 2 hour circulation period.
# [5] = test system: laser-induced choroidal neovascularization (CNV); experiment: Mouse laser-induced CNV, prevention paradigm, oral gavage; type: in vivo; conditions: for inhibition of CNV (in words): prevention paradigm, 14 days
# [6] = test system: existing laser-induced choroidal neovascularization (CNV); experiment: Mouse laser-induced CNV, regression of existing CNV, intravitreal injection at day 7; type: in vivo; conditions: single intravitreal injection
# Experimental: (§1) METHODS. CNV was generated by laser-induced rupture of Bruch's membrane. Briefly, 4 to 5 week old male C57BL/6J mice were anesthetized using intraperitoneal administration of ketamine hydrochloride (100 mg/kg) and xylazine (5 mg/kg) and the pupils of both eyes dilated with topical ocular instillation of 1% tropicamide and 2.5% Mydfin®. One drop of topical cellulose (Gonioscopic®) was used to lubricate the cornea. A hand-held cover slip was applied to the cornea and used as a contact lens to aid visualization of the fundus. Three to four retinal burns were placed in randomly assigned eye (right or left eye for each mouse) using the Alcon 532 nm EyeLite laser with a slit lamp delivery system. The laser burns were used to generate a rupture in Bruch's membrane, which was indicated ophthalmoscopically by the formation of a bubble under the retina. Only mice with laser burns that produced three bubbles per eye were included in the study. Burns were typically placed at the 3, 6, 9 or 12 o'clock positions in the posterior pole of the retina, avoiding the branch retinal arteries and veins.
# (§2) Each mouse was randomly assigned into one of the following treatment groups: noninjected controls, sham-injected controls, vehicle-injected mice, or one of three RTKi-injected groups. […]
# METHODS. […] Choroidal flat mounts were analyzed as described above in Example 3.
# [7] = test system: laser-induced choroidal neovascularization (CNV); experiment: Mouse laser-induced CNV, prevention, intravitreal injection; type: in vivo, C57BL/6J mice
# Experimental: as §1, §2
# [8] = NDM and DM groups, oral gavage, 2 weeks
smiles,measurement,setting,value
"Cc1ccc(F)c(NC(=O)Nc2ccc(-c3cccc4[nH]nc(N)c34)cc2)c1 [Compound 86, N-[4-[3-amino-1H-indazol-4-yl]phenyl]-N′-(2-fluoro-5-methylphenyl)urea]",efficacy against preretinal NV (in words),"[1]; 0.1% treated eyes, intravitreal",Efficacy was not observed
same,"effect on preretinal neovascularization (in words, FIG. 1)",[1]; single intravitreal injection,inhibits
same,decrease in NV (in words),[2]; 3 mg/kg/day p.o.,did not have a significant decrease
same,inhibition of preretinal NV (in words),[2]; 20 mg/kg/day p.o.,complete inhibition
same,"effect on preretinal neovascularization (in words, FIG. 2)",[2]; oral gavage,prevents
same,regression of existing CNV (in words),[3],did not show a significant regression
same,RVP (in words),"[4]; NDM (non-diabetic) rats, 5 mg/kg/d oral gavage",unchanged
same,systemic or ERG side effects,[4]; [8],no observed systemic or ERG side effects
same,tolerability of oral treatment,[4]; [8],well tolerated
same,"effect on laser-induced CNV (in words, FIG. 6)",[5]; oral gavage,inhibits
same,inhibition of CNV (in words),[5]; 3 mg/kg/day oral gavage,no significant inhibition
same,inhibition of CNV (in words),[5]; 20 mg/kg/d oral gavage,complete inhibition
same,"effect on existing laser-induced CNV (in words, FIG. 4)",[6],induces regression
same,difference in CNV versus vehicle injected eyes (in words),"[7]; 0.3% RTKi, intravitreal",marginal statistical difference
same,"effect on laser-induced CNV (in words, FIG. 3)",[7]; single intravitreal injection,inhibits
